Data on two compounds can be found in patent US10174067B2, “Type of cytidine derivative and application thereof” (priority 2014, dated 2019).

The nature of this series: in vivo. To be noted: female, mouse, in vivo, ip. The method in brief:
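MTD, the dose without mortality, body-weight loss over 10% from Day 0 or marked adverse signs, was found by stepwise up/down single intraperitoneal dosing of female SPF ICR mice. Vehicle: ethanol:Cremophor EL:saline 5:5:90. Animals weighed daily and clinically checked twice daily for up to 14 days.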

Consider `O=C(COc1nc(Cl)c(Cl)cc1Cl)OC[C@H]1O[C@@H](n2cc(Br)c(NC(=O)OCc3ccccc3)nc2=O)C(F)(F)C1O` (some centres unmarked) [Compound G10], for which the MTD at 7 days turned out to be 400 mg/kg. In turn, `CCCCOC(=O)Nc1nc(=O)n([C@@H]2O[C@H](COC(=O)Cn3cnc([N+](=O)[O-])c3)C(O)C2(F)F)cc1I` (some centres unmarked) [Compound G12] displayed an MTD at 7 days of 400 mg/kg.
